Reference: patent EP4775208A1, “USE OF PRMT5 INHIBITOR IN TREATMENT OF TUMORS OR CANCERS” (Apeiron Therapeutics (Hong Kong) Ltd., priority 2023, dated 2025)

Key:
[1] = test system: HCT-116 MTAP wild-type cells; experiment: Inhibition of proliferation of HCT-116 MTAP wild-type cells (Cell-Titer Glo); format: cell-based; conditions: 8 days
Procedure: Test 2: Compound's inhibitory activity on proliferation of HCT-116 MTAP wild-type cells.
Materials and Cells: HCT-116 MTAP wild-type cells obtained from Kyinno Bio (China); RPMI-1640 medium, fetal bovine serum, and penicillin-streptomycin purchased from Thermo Fisher Scientific (America); 384-well plates from PerkinElmer (America); Cell-Titer Glo assay kit from Promega (America).
Cell Culture: HCT116 MTAP wild-type cells were cultured in RPMI 1640 medium containing 10% fetal bovine serum and 1% penicillin-streptomycin at 37°C, 5% CO2. Only cells in logarithmic growth phase were used for experiments.
(§1) Cell Proliferation Inhibition Assay: The compound's inhibitory activity on HCT-116 MTAP wild-type cells was assessed using the Cell-Titer Glo assay kit. Adjusting cell concentration, 40 µL was seeded into a 384-well plate and cultured overnight at 37°C, 5% CO2. Each well received 40 nL of the compound, achieving concentrations from 0 to 10,000 nM (starting concentration 10,000 nM, 3-fold dilution, 10 points), with 0.1% DMSO. The cell plate was incubated for 8 days at 37°C, 5% CO2. Cell-Titer Glo reagent (40 µL) was added to measure cell viability.

[2] = test system: HCT-116 MTAP(-/-) deficient cells; experiment: Inhibition of proliferation of HCT-116 MTAP(-/-) deficient cells (Cell-Titer Glo); format: cell-based; conditions: 8 days
Procedure: Test 1: Compound's inhibitory activity on proliferation of HCT-116 MTAP(-/-) deficient cells.
Materials and Cells: HCT-116 MTAP(-/-) deficient cells obtained from Kyinno Bio (China); RPMI-1640 medium, fetal bovine serum, and penicillin-streptomycin purchased from Thermo Fisher Scientific (America); 384-well plates from PerkinElmer (America); Cell-Titer Glo assay kit from Promega (America).
Cell Culture: HCT116 MTAP(-/-) deficient cells were cultured in RPMI 1640 medium containing 10% fetal bovine serum and 1% penicillin-streptomycin at 37°C, 5% CO2. Only cells in logarithmic growth phase were used for experiments.
as §1, with “MTAP(-/-) deficient” for “MTAP wild-type”

IC50 ([1]; Homo sapiens, HCT-116, 192 h) | IC50 ([2]; Homo sapiens, HCT-116, 192 h) | IC50 [1] | IC50 [2] | Compound
> 10000 nM | 711 nM | – | – | Nc1nc2cc(F)c(C(=O)N(C3CC3)C3CCOc4cc(-c5cncc(C(F)(F)F)c5)cnc43)cc2n2cncc12 (centres unmarked) [Example 59, 4-amino-N-cyclopropyl-7-fluoro-N-(7-(5-(trifluoromethyl)pyridin-3-yl)-3,4-dihydro-2H-pyrano[3,2-b]pyridin-4-yl)imidazo [1,5-a]quinoxaline-8-carboxamide]
7070 nM | 66.8 nM | – | – | CN(C(=O)c1cc2c(cc1F)nc(N)c1cncn12)[C@@H]1CCOc2cc(C(F)(F)F)ccc21 [Example 60, (R)-4-amino-7-fluoro-N-methyl-N-(7-(trifluoromethyl)chroman-4-yl)imidazo[1,5-a]qui noxaline-8-carboxamide]
882 nM | 7.7 nM | – | – | CC1OC[C@@H](N(C)C(=O)c2cc3c(cc2Cl)nc(N)c2cncn23)c2ccc(F)cc21 (stereo partly drawn) [Example 61, 4-amino-7-chloro-N-( (4S)-7-fluoro-1-methylisochroman-4-yl)-N-methylimidazo[1,5-a] quinoxaline-8-carbox amide]
3710 nM | 19.7 nM | – | – | CC1OC[C@@H](N(C)C(=O)c2cc3c(cn2)nc(N)c2cncn23)c2ccc(F)cc21 (stereo partly drawn) [Example 62, 4-amino-N-((4S)-7-fluoro-1-methylisochroman-4-yl)-N-methyli midazo[1,5-a]pyrido[3,4-e]pyrazine-8-carb oxamide]
3260 nM | 46.8 nM | – | – | CN(C(=O)c1cc2c(cc1Cl)nc(N)c1cncn12)[C@@H]1COc2ccc(F)cc21 [Example 63, (S)-4-amino-7-chloro-N-(5-fluoro-2,3-dihydrobenzofuran-3-yl)-N-methylimidazo[1,5-a] quinoxaline-8-carbox amide]
> 20000 nM | 278 nM | – | – | Cc1ncn2c1c(N)nc1ccc(C(=O)N(C)[C@@H]3COc4ccc(F)cc43)cc12 [Example 64, (S)-4-amino-N-(5-fluoro-2,3-dihydrobenzofuran-3-yl)-N,3-dimet hylimidazo[1,5-a]quin oxaline-8-carboxamide]
5950 nM | 95.3 nM | – | – | N#Cc1ccc2c(c1)OCC2N(C(=O)c1ccc2nc(N)c3cncn3c2c1)C1CC1 (centres unmarked) [Example 65, 4-amino-N-(6-cyano-2,3-dihydrobenzofuran-3-yl)-N-cyclopropyl imidazo[1,5-a]quinox aline-8-carboxamide]
> 20000 nM | 2260 nM | – | – | CN(C(=O)c1ccc2nc(N)c3cncn3c2c1)[C@@H]1COc2ccc(F)cc21 [Example 66, (S)-4-amino-N-(5-fluoro-2,3-dihydrobenzofuran-3-yl)-N-methyli midazo[1,5-a]quinoxa line-8-carboxamide]
3640 nM | 35.6 nM | – | – | Nc1nc2cnc(C(=O)N(C3CC3)C3COc4cc(C(F)(F)F)ccc43)cc2n2cncc12 (centres unmarked) [Example 67, 4-amino-N-cyclopropyl-N-(6-(trifluoromethyl)-2,3-dihydrobenzof uran-3-yl)imidazo[1,5-a]pyrido[3,4-e]pyrazine-8-carboxamide]
8570 nM | 382 nM | – | – | CN(C(=O)c1ccc2nc(N)c3cncn3c2c1)[C@@H]1COc2cc(F)ccc21 [Example 68, (S)-4-amino-N-(6-fluoro-2,3-dihydrobenzofuran-3-yl)-N-methyli midazo[1,5-a]quinoxa line-8-carboxamide]
5020 nM | 87.1 nM | – | – | Cc1ncn2c1c(N)nc1ccc(C(=O)N(C3CC3)C3COc4cc(C(F)(F)F)ccc43)cc12 (centres unmarked) [Example 69, 4-amino-N-cyclopropyl-3-methyl-N-(6-(trifluoromethyl)-2,3-dihydrobenzofuran-3-yl)i midazo[1,5-a]quinoxa line-8-carboxamide]
4620 nM | 55.5 nM | – | – | Nc1nc2ccc(C(=O)N(C3CC3)C3COc4cc(C(F)(F)F)ccc43)cc2n2cncc12 (centres unmarked) [Example 73, 4-amino-N-cyclopropyl-N-(6-(trifluoromethyl)-2,3-dihydrobenzof uran-3-yl)imidazo[1,5-a]quinoxaline-8-carb oxamide]
– | – | 5990 nM | 148 nM | Nc1nc2ccc(C(=O)N(C3CC3)C3COc4cc(Br)ccc43)cc2n2cncc12 (centres unmarked) [Example 74, 4-amino-N-(6-bromo-2,3-dihydrobenzofuran-3-yl)-N-cyclopropyl imidazo[1,5-a]quinox aline-8-carboxamide]
> 10000 nM | > 3000 nM | – | – | CN(C(=O)c1ccc2nc(N)c3cncn3c2c1)[C@@H]1COc2cc(NS(=O)(=O)C(F)(F)F)ccc21 [Example 76, (S)-4-amino-N-methyl-N-(6-((trifluoromethyl)sulfonamido)-2,3-dihydrobenzofuran-3-yl)imida zo[1,5-a]quinoxaline-8-carboxamide]
4260 nM | 101 nM | – | – | CC1OC[C@@H](N(C)C(=O)c2ccc3nc(N)c4cncn4c3c2)c2cc(F)ccc21 (stereo partly drawn) [Example 77, 4-amino-N-((4S)-6-fluoro-1-methylisochroman-4-yl)-N-methylimidazo[1,5-a]quinoxaline-8-carboxamide]
> 10000 nM | 121 nM | – | – | CC1OC[C@@H](N(C)C(=O)c2ccc3nc(N)c4cncn4c3c2)c2cccnc21 (stereo partly drawn) [Example 108, 4-amino-N-methyl-N-((5S)-8-methyl-5,8-di hydro-6H-pyrano[3,4-b]pyridin-5-yl)imidaz o[1,5-a]quinoxaline-8-carboxamide]
9090 nM | > 3000 nM | – | – | CCOC(=O)c1ncn2c1c(N)nc1ccc(C(=O)N(C)C3COc4cc(C(F)(F)F)ccc43)cc12 (centres unmarked) [Example 109, ethyl 4-amino-8-(methyl(6-(trifluoromethyl)-2,3-dihydrobenzofuran-3-yl)carbamoyl)imidazo[1,5-a]quinoxaline-3-carboxylate]
> 10000 nM | > 3000 nM | – | – | CN(C(=O)c1cc2c(cc1F)nc(N)c1cncn12)C1CCOc2cc(C(F)(F)F)cnc21 (centres unmarked) [Example 110, 4-amino-7-fluoro-N-methyl-N-(7-(trifluoromethyl)-3,4-dihydro-2 H-pyrano[3,2-b]pyridin-4-yl)imidazo[1,5-a] quinoxaline-8-carbox amide]
> 10000 nM | 500 nM | – | – | CN(C(=O)c1ccc2nc(N)c3cnc(Br)n3c2c1)[C@@H]1COc2cc(C(F)(F)F)ccc21 [Example 111, (S)-4-amino-1-bromo-N-methyl-N-(6-(trifluoromethyl)-2,3-dihydrobenzofuran-3-yl)imidazo[1,5-a]quinoxaline-8-carboxamide]
> 10000 nM | 338 nM | – | – | CN(C(=O)c1ccc2nc(N)c3cncn3c2c1)[C@@H]1COc2cc(C(F)F)ccc21 [Example 112, (S)-4-amino-N-(6-(difluoromethyl)-2,3-dihydrobenzofuran-3-yl)-N-methylimidazo[1,5-a]quinoxaline-8-carboxamide]
> 10000 nM | 146 nM | – | – | CN(C(=O)c1cc2c(cc1F)nc(N)c1cncn12)[C@@H]1CCOc2cc(-c3cnn(C)c3)ccc21 [Example 114, (R)-4-amino-7-fluoro-N-methyl-N-(7-(1-methyl-1H-pyrazol-4-yl)chroman-4-yl)imidazo [1,5-a]quinoxaline-8-c arboxamide]
> 10000 nM | 84.3 nM | – | – | CN(C(=O)c1cc2c(cc1F)nc(N)c1cncn12)[C@@H]1CCOc2cc(-c3ccnn3C)ccc21 [Example 115, (R)-4-amino-7-fluoro-N-methyl-N-(7-(1-methyl-1H-pyrazol-5-yl)chroman-4-yl)imidazo[1,5-a]quinoxaline-8-carboxamide]
> 10000 nM | 109 nM | – | – | Cc1cc(-c2ccc3c(c2)OCC[C@H]3N(C)C(=O)c2cc3c(cc2F)nc(N)c2cncn23)on1 [Example 116, (R)-4-amino-7-fluoro-N-methyl-N-(7-(3-methylisoxazol-5-yl)chroman-4-yl)imidazo[1,5-a]quinoxaline-8-carb oxamide]
> 10000 nM | 2930 nM | – | – | CN(C(=O)c1ccc2nc(N)c3cnc(C4CC4)n3c2c1)[C@@H]1COc2cc(C(F)(F)F)ccc21 [Example 118, (S)-4-amino-1-cyclopro pyl-N-methyl-N-(6-(trifluoromethyl)-2,3-dihydrobenzofuran-3-yl)imida zo[1,5-a]quinoxaline-8-carboxamide]

Compound | IC50 ([1]; Homo sapiens, HCT-116, 192 h) | IC50 ([2]; Homo sapiens, HCT-116, 192 h) | IC50 [1] | IC50 [2]
Cc1ncc(-c2ccc3c(c2)OCC3N(C(=O)c2ccc3nc(N)c4cncn4c3c2)C2CC2)cn1 (centres unmarked) [Example 72, 4-amino-N-cyclopropyl-N-(6-(2-methylpyrimidin-5-yl)-2,3-dihydrobenzofuran-3-yl)imi dazo[1,5-a]quinoxaline-8-carboxamide] | > 20000 nM | 117 nM | – | –
